Measured values as given in patent publication US20240368668A1, “SUBSTRATES AND BIOMARKERS OF ADAMTS7” (The Broad Institute, Inc., priority 2021, published 2024).

Tested on: mouse ADAMTS7
Assay: TMT10 TAILS N-terminomics, HUVEC experiment (process replicates, trypsin/AspN digest)
Format: cell-based, human
Conditions: HUVEC TAILS HC; log fold change of N-terminal peptide, Ad-mADAMTS7 WT over EQ
Method in brief: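 Full-length mouse ADAMTS7 (WT or E373Q mutant, C-terminal 3xFLAG) or luciferase was transduced via adenovirus, 50 MOI, into HCA-SMC (SMC1, SMC2) or HUVEC. SMC1: pooled media, technical triplicates 400 ug; SMC2: process triplicates 300 ug; HUVEC: process triplicates 200 ug, bFGF2 10 ng/ml.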

Row | Substance | logFC.mWT.over.mEQ
1 | THBS2_290 (LSENLKR; listed as Homo sapiens) | 4.41
2 | MAP4_815 (AVASTGPSSR; listed as Homo sapiens) | 2.51
3 | NUCB1_389 (LQQAVLHMEQR; listed as Homo sapiens) | 1.54
4 | SPOCK1_27 (LAGGAGPNHGNFL; listed as Homo sapiens) | 1.07
5 | NID2_291 (HSSVPLGR; listed as Homo sapiens) | 2.90
6 | LTBP2_79 (VAGLQPVER; listed as Homo sapiens) | 1.51
7 | LTBP2_250 (SAAGEGTLAR; listed as Homo sapiens) | 1.71
8 | MAP4_816 (VASTGPSSR; listed as Homo sapiens) | 2.05
9 | SERBP1_56 (QAAAQTNSNAAGKQLR; listed as Homo sapiens) | 1.43
10 | LTBP3_208 (FLVPLGPGQISA; listed as Homo sapiens) | 2.14
11 | LTBP2_502 (LVENSVETRPPPWLPASPGHSLW; listed as Homo sapiens) | 2.68
12 | SRGN_59 (LLPGESNKIPR; listed as Homo sapiens) | 1.17
13 | NUCB1_317 (FLASTQR; listed as Homo sapiens) | 2.65
14 | COL18A1_1505 (LQPPVVQLHDSNPYPR; listed as Homo sapiens) | 3.88
15 | NID1_360 (FHQQHPQVI; listed as Homo sapiens) | 1.78
